Measured values from EP0606747A1, “Tilmicosin and derivatives for treating gram-positive diseases of aquatic species” (ELI LILLY AND COMPANY, priority 1992, dated 1994).
Values after ≈ are worked out from the molar mass of the structure shown. Where two headings read alike, the source gives them in different places.

Columns and labels:
[1] = system: Renibacterium salmoninarum; assay: In vitro evaluation of tilmicosin against Renibacterium salmoninarum (MIC); format: cell-based; conditions: for MIC: Renibacterium salmoninarum, read-out: minimum inhibitory concentration (MIC)
Experimental: Test 1: In vitro evaluation of tilmicosin against Renibacterium salmoninarum.
A dozen strains of Renibactenum salmoninarum were obtained and cultured in standard procedures. Eight grew successfully and were employed in the evaluation of tilmicosin.
Tilmicosin was evaluated at various concentrations and the minimum inhibitory concentration (MIC) determined for each of the strains. For three of the strains, the MIC was 1 µg/ml; for the remaining five strains, the MIC was 2 µg/ml.

[2] = Test 2: palatability and growth study in Atlantic salmon, medicated diets, four weeks; format: in vivo, Atlantic salmon (Salmo salar); conditions: all fish at the end of the four-week study
Experimental: Test 2: Palatability and growth studies in Atlantic salmon.
A trial was conducted to determine the palatability and effect on growth of Atlantic salmon (Salmo salar), St. John River strain, of diets containing various concentrations of tilmicosin. Pre-smolt salmon, each weighing about 50 grams, from a stock certified to be free of bacterial kidney disease, were used. The fish were acclimatized for four weeks. During this period, the fish were in tanks maintained with fresh single-pass flow-through well water, 10±2°C., and a photoperiod of 12/12. Water flow rate was adequate to provide a dissolved oxygen concentration of ≧ 5 mg/liter post feeding and under conditions of normal activity provided a dissolved oxygen concentration of ≧ 8 mg/liter. All fish were fed a standard diet. […]
All fish were fed 3× on weekdays and 1× or 2× on weekend days. […] The trial lasted four weeks, and the following parameters were determined: feed intake feed intake as % of body weight weight gain weight gain as % of body weight feed conversion At the end of the four weeks, the fish were sacrificed and tissue from liver, muscle, and kidney analyzed for tilmicosin by an HPLC assay. […] Quantitative determination of tilmicosin was accomplished by reversed-phase HPLC with a phenylsilyl stationary phase and a U.V. absorption detector at 280 nm. […]

[3] = Test 3: palatability and growth study in Atlantic salmon, tilmicosin base versus phosphate salt; format: in vivo, Atlantic salmon (Salmo salar); conditions: 800 mg/kg of diet (free base equivalent), four weeks; cause of death could not be determined
Experimental: Test 3: Palatability and Growth Studies in Atlantic Salmon, Comparing Tilmicosin Base and Phosphate Salt
A trial was conducted to determine the palatability to Atlantic salmon (Salmo salar), St. John River strain, of diets containing either tilmicosin (free base) or tilmicosin phosphate. Pre-smolt salmon, each weighing about 50 grams, from a certified disease free stock, were used. The salmon, 30 per tank and 9 tanks, were acclimatized for about two weeks. During this period and throughout the trial, the tanks were maintained with fresh single-pass flow-through well water, 2 liters per minute, 12 ± 1°C., and the photoperiod was 12/12. During the acclimatization, all fish were fed a standard feed. Thereafter the salmon in three tanks continued to receive the standard diet, to serve as a control. The salmon in three other tanks received a modified diet containing 800 mg of tilmicosin (free base) per kilogram of diet; the salmon in the last three tanks received a modified diet containing tilmicosin phosphate in an amount equivalent to 800 mg of tilmicosin (free base) per kilogram of diet. […] The trial was continued for a four-week period, during which these parameters were evaluated: feed intake feed intake as % of body weight weight gain weight gain as % of body weight feed conversion All surviving fish were euthanized. […]

| MIC ([1]; remaining five of the eight strains) [µg/mL] | MIC ([1]; three of the eight strains) [µg/mL] | Post-mortem examination [2] | Compound | growth ([1]; lower concentrations down to 0.25 µg/ml) | mortality [3] |
| --- | --- | --- | --- | --- | --- |
| 2 (≈ 2.3 µM) | 1 (≈ 1.15 µM) | no gross abnormalities | CC[C@H]1OC(=O)C[C@@H](O)[C@H](C)[C@@H](O[C@@H]2O[C@H](C)[C@@H](O)[C@H](N(C)C)[C@H]2O)[C@@H](CCN2C[C@H](C)C[C@H](C)C2)C[C@@H](C)C(=O)/C=C/C(C)=C/[C@@H]1CO[C@@H]1O[C@H](C)[C@@H](O)[C@@H](OC)[C@H]1OC [tilmicosin] | dramatic reduction in growth | – |
| – | – | – | tilmicosin phosphate | – | One fish from the tank receiving tilmicosin phosphate died |
